Data from publication PMC2772170 (Journal of medicinal chemistry, 2009).
Like-named read-outs stand apart in the source and are kept apart here.

What was measured:
[1] = molecular target: T1, TGR (Schistosoma mansoni, UniProt Q962Y6); settings: cited from earlier work
T1 sequence (Q962Y6 1-598): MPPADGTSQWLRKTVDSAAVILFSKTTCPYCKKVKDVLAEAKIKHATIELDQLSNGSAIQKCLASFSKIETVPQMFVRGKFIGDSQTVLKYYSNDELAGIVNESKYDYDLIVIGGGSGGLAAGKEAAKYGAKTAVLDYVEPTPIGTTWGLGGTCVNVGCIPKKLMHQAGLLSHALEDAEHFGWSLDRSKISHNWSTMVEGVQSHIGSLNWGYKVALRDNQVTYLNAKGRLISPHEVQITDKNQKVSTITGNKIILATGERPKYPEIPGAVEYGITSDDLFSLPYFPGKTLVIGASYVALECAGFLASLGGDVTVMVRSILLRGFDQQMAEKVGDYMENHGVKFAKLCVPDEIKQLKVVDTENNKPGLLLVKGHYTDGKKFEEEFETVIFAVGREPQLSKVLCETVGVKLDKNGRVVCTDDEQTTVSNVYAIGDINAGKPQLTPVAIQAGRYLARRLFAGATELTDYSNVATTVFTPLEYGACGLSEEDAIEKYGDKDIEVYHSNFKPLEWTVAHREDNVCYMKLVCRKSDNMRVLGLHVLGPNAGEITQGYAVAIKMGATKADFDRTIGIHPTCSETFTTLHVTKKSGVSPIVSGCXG

[2] = ABTS oxidation; cited from earlier work
[3] = tested on: ex vivo worms in culture; assay: Ex vivo parasite killing, visual examination of cultured worms; parameters: species or system Schistosoma
[4] = molecular target: T2, thioredoxin glutathione reductase (TGR) (Schistosoma mansoni, UniProt Q962Y6); assay type: biochemical
T2 sequence (Q962Y6 1-598): T1 sequence (Q962Y6 1-598)

[5] = molecular target: T1, TGR; assay type: biochemical; settings: with TGR; ABTS method, data in supporting information
[6] = NO release on reaction with cysteine, chemiluminescent assay; settings: for NO donation on reaction with cysteine (in words): chemiluminescent assay
[7] = Microsomal stability; settings: human liver microsomes, 60 minutes at 37 °C; for Microsomal stability, NADPH (+): with NADPH; for Microsomal stability, NADPH (−): without NADPH
[8] = Caco-2 permeability; settings: human
[9] = human, microsomes, 1 h
[10] = molecular target: T2, thioredoxin glutathione reductase (TGR); settings: cited from earlier work
[11] = 10 μM compound, cultured worms, 4 hr
[12] = 10 μM compound, cultured worms, 24 hr
[13] = 10 μM compound, cultured worms, 48 hr

Row | SMILES | Ex Vivo Parasite Killing 2 hr ([3]; 10 μM compound, cultured worms) | Ex Vivo Parasite Killing 4 hr [3, 11] | Ex Vivo Parasite Killing 8 hr ([3]; 10 μM compound, cultured worms) | Ex Vivo Parasite Killing 48 hr [3, 13] | Ex Vivo Parasite Killing 72 hr ([3]; 10 μM compound, cultured worms) | also measured
1 | O=C(c1cccs1)c1no[n+]([O-])c1C(=O)c1cccs1 [Analogue 3, bis(thiophen-2-ylmethanone)-furoxan] | n.e. | n.e. | n.e. | n.e. | n.e. | NO generation in the presence of TGR/NADPH [1]: not in the presence of TGR/NADPH; NO generation in the presence of cysteine [2]: capable of NO generation in the presence of cysteine; Ex Vivo Parasite Killing 16 hr ([3]; 10 μM compound, cultured worms): n.e.; Ex Vivo Parasite Killing 24 hr [3, 12]: n.e.
2 | N#Cc1nonc1-c1ccccc1 [Analogue 4] |  |  |  |  |  | TGR inhibition (in words) [4]: nor was either analogue active versus TGR; NO release / NO donating ability (in words) [5]: no appreciable NO release with TGR; Ex vivo worm killing (in words) [3]: nor was either analogue active versus TGR or an effective ex vivo worm killing agent
3 | N#Cc1no[n+]([O-])c1-c1ccccc1 [Analogue 5] |  |  |  |  |  | TGR inhibition (in words) [4]: nor was either analogue active versus TGR; NO release / NO donating ability (in words) [5]: no appreciable NO release with TGR; Ex vivo worm killing (in words) [3]: nor was either analogue active versus TGR or an effective ex vivo worm killing agent
4 | Cc1c(-c2ccccc2)no[n+]1[O-] [Analogue 6] |  |  |  |  |  | NO release / NO donating ability (in words) [5]: inactive as a NO donor; NO donation on reaction with cysteine (in words) [6]: nor was 6 capable of NO donation
5 | [O-][n+]1onc(-c2ccccc2)c1CO [Analogue 7] |  |  |  |  |  | NO release / NO donating ability (in words) [5]: only a weak NO donor
6 | O=Cc1c(-c2ccccc2)no[n+]1[O-] [Analogue 8] |  |  |  |  |  | NO release / NO donating ability (in words) [5]: only modest NO donating abilities
7 | O=C(O)c1c(-c2ccccc2)no[n+]1[O-] [Analogue 9] |  |  |  |  |  | NO release / NO donating ability (in words) [5]: only modest NO donating abilities
8 | N#Cc1c(-c2cccc([N+](=O)[O-])c2)no[n+]1[O-] [Analogue 11] | n.e. | n.e. | n.e. |  |  | Ex Vivo Parasite Killing 16 hr ([3]; 10 μM compound, cultured worms): sluggish
9 | N#Cc1c(-c2cccc(C(F)(F)F)c2)no[n+]1[O-] [Analogue 12] | n.e. | n.e. |  | 100%D | 100%D | 
10 | N#Cc1c(-c2ccc(F)c(Br)c2)no[n+]1[O-] [Analogue 13] | n.e. | n.e. | curling |  | 100%D | Ex Vivo Parasite Killing 24 hr [3, 12]: 50%D
11 | N#Cc1c(-c2cccc(Br)c2)no[n+]1[O-] [Analogue 14] | n.e. | n.e. |  | 100%D | 100%D | Ex Vivo Parasite Killing 24 hr [3, 12]: 100%D
12 | N#Cc1c(-c2cccc(Cl)c2)no[n+]1[O-] [Analogue 15] | n.e. | sluggish |  |  | 100%D | 
13 | N#Cc1c(-c2ccc(Br)cc2)no[n+]1[O-] [Analogue 16] | n.e. | sluggish |  | 100%D | 100%D | Microsomal stability, NADPH (+) [7]: 10 % remaining; Microsomal stability, NADPH (−) [7]: 67 % remaining; Ex Vivo Parasite Killing 24 hr [3, 12]: 100%D
14 | N#Cc1c(-c2ccc(Cl)cc2)no[n+]1[O-] [Analogue 17] | n.e. | n.e. | n.e. |  | 100%D | Ex Vivo Parasite Killing 16 hr ([3]; 10 μM compound, cultured worms): sluggish
15 | N#Cc1c(-c2ccc(C(F)(F)F)cc2)no[n+]1[O-] [Analogue 18] | n.e. | n.e. |  |  | 100%D | 
16 | N#Cc1c(-c2cccc(O)c2)no[n+]1[O-] [Analogue 19] | n.e. | n.e. |  | n.e. | n.e. | Ex Vivo Parasite Killing 16 hr ([3]; 10 μM compound, cultured worms): n.e.; Ex Vivo Parasite Killing 24 hr [3, 12]: n.e.
17 | N#Cc1c(-c2ccc(F)cc2)no[n+]1[O-] [Analogue 20] | n.e. | n.e. |  | 100%D | 100%D | 
18 | COc1ccccc1-c1no[n+]([O-])c1C#N [Analogue 21] | n.e. | n.e. |  |  |  | 
19 | COc1cc(-c2no[n+]([O-])c2C#N)cc(OC)c1OC [Analogue 22] | n.e. | n.e. |  |  |  | Ex Vivo Parasite Killing 16 hr ([3]; 10 μM compound, cultured worms): sluggish
20 | COc1cccc(-c2no[n+]([O-])c2C#N)c1 [Analogue 23] | n.e. | n.e. | n.e. |  |  | Ex Vivo Parasite Killing 16 hr ([3]; 10 μM compound, cultured worms): n.e.
21 | COc1ccc(-c2no[n+]([O-])c2C#N)cc1 [Analogue 24] | n.e. | n.e. | n.e. |  | 100%D | 
22 | Cc1ccc(-c2no[n+]([O-])c2C#N)cc1 [Analogue 25] | n.e. | n.e. | n.e. |  |  | 
23 | N#Cc1c(-c2ccc(-c3ccccc3)cc2)no[n+]1[O-] [Analogue 26] | n.e. | n.e. | sluggish |  |  | Ex Vivo Parasite Killing 16 hr ([3]; 10 μM compound, cultured worms): sluggish; Ex Vivo Parasite Killing 24 hr [3, 12]: 20%D
24 | N#Cc1c(-c2ccc(O)cc2)no[n+]1[O-] [Analogue 27] | n.e. | n.e. | sluggish |  | 100%D | 
25 | N#Cc1c(-c2ccco2)no[n+]1[O-] [Analogue 28] | n.e. | n.e. |  | 100%D | 100%D | NO release / NO donating ability (in words) [5]: good NO release profiles
26 | N#Cc1c(-c2cccs2)no[n+]1[O-] [Analogue 29] | n.e. | n.e. |  | 100%D | 100%D | Microsomal stability, NADPH (+) [7]: 1 % remaining; Microsomal stability, NADPH (−) [7]: 64 % remaining; NO release / NO donating ability (in words) [5]: good NO release profiles; Papp A→B [8]: 8.4 ×10⁻⁶ cm/s
27 | N#Cc1c(C(=O)c2cccs2)no[n+]1[O-] [Analogue 30] | n.e. | n.e. | n.e. | n.e. | n.e. | NO donation on reaction with cysteine (in words) [6]: capable of releasing NO; Ex Vivo Parasite Killing 16 hr ([3]; 10 μM compound, cultured worms): n.e.; Ex Vivo Parasite Killing 24 hr [3, 12]: n.e.
28 | N#Cc1c(-c2cccc(-c3no[n+]([O-])c3C#N)c2)no[n+]1[O-] [Analogue 31] |  |  |  |  |  | Ex Vivo Parasite Killing 4 hr [3]: curling; Ex Vivo Parasite Killing 24 hr [3]: 100%D; Ex Vivo Parasite Killing 48 hr [3]: 100%D
29 | N#Cc1c(-c2cc(F)cc(-c3no[n+]([O-])c3C#N)c2)no[n+]1[O-] [Analogue 33] |  |  |  |  |  | Microsomal stability, NADPH (+) [9]: 20/51 % remaining; Microsomal stability, NADPH (−) [9]: 20/51 % remaining; NO equivalents produced per equivalent of reagent [6]: 1.55 molar equivalents; Ex Vivo Parasite Killing 48 hr [3]: 100%D
30 | CC(=O)OC[C@H]1O[C@@H]([S-])[C@H](OC(C)=O)[C@@H](OC(C)=O)[C@@H]1OC(C)=O.CCP(CC)CC.[Au+] [auranofin] |  |  |  |  |  | TGR inhibition (in words) [10]: potent inhibitor of TGR
